Values after ≈ are worked out from the molar mass of the structure shown. Where two headings read alike, the source gives them in different places.
Key:
[1] = test system: influenza A/H1N1 A/Ned/378/05; assay: microbe, parasite or virus in culture; format: cell-based, influenza A virus; settings: Influenza A virus, H1N1, MDCK
[2] = test system: influenza A/H3N2 A/Victoria/361/11; assay: microbe, parasite or virus in culture; format: cell-based, influenza A virus; settings: Influenza A virus, H3N2, MDCK
[3] = test system: influenza B virus B/Ned/537/05; assay: CPE reduction assay for influenza virus in MDCK cells, influenza B; format: cell-based; settings: Influenza B virus, MDCK cells
Method: The CPE reduction assay for influenza virus was described in full detail in previous publications.41 The virus strains were: A/PR/8/34 (A/H1 N1); A/Virginia/ATCC3/2009 (A/H1 N1pdm); A/HK/7/87 (A/H3 N2); B/Ned/537/05; and B/HK/5/72. On day 0, Madin‐Darby canine kidney (MDCK) cells in 96‐well plates were infected with influenza virus at a multiplicity of infection (MOI) of 0.0004 plaque forming units (PFU) per cell. After three days incubation at 35 °C, virus‐induced CPE and compound cytotoxicity were scored by microscopy, after which the data were confirmed by formazan‐based MTS cell viability assay (CellTiter 96® AQueous One Solution Cell Proliferation Assay from Promega). The antiviral effect was expressed as the compound concentration producing 50 % inhibition of the virus‐induced CPE (EC50). Compound cytotoxicity was expressed as the compound concentration causing minimal changes in cell morphology (MCC), and 50 % cytotoxic concentration (CC50) based on MTS assay.42

[4] = test system: MDCK cells; settings: for Cytotoxicity MCC (minimum cytotoxic concentration) / CC50: dog
[5] = in vitro; settings: dog
[6] = test system: Bacillus subtilis ATCC 6633; assay: Antibacterial MIC; format: cell-based; settings: Bacillus subtilis, ATCC6633, read-out: MIC Bacillus subtilis ATCC 6633
[7] = test system: Staphylococcus aureus MSSA ATCC 29213; assay: Antibacterial MIC; format: cell-based; settings: Staphylococcus aureus, read-out: MIC Staphylococcus aureus MSSA ATCC 29213
[8] = test system: S. aureus MRSA ATCC 33591; assay: Antibacterial MIC; format: cell-based, Staphylococcus aureus; settings: Staphylococcus aureus, read-out: MIC S. aureus MRSA ATCC 33591
[9] = test system: Staphylococcus epidermidis ATCC 35984 biofilm; assay: Antibacterial MIC; format: cell-based
[10] = test system: Enterococcus faecalis ATCC 29212; assay: Antibacterial MIC; format: cell-based; settings: Enterococcus faecalis, ATCC29212, read-out: MIC Enterococcus faecalis ATCC 29212
[11] = test system: E. faecalis 15376 VanA; assay: Antibacterial MIC; format: cell-based, Enterococcus faecalis; settings: Enterococcus faecalis, 15376VANA, read-out: MIC E. faecalis 15376 VanA
[12] = test system: E. faecalis ATCC 51299 VanB; assay: Antibacterial MIC; format: cell-based, Enterococcus faecalis; settings: Enterococcus faecalis, ATCC51299, read-out: MIC E. faecalis ATCC 51299 VanB
[13] = test system: influenza A and B viruses; format: cell-based, influenza virus
[14] = test system: HEL human embryonic lung fibroblast cells
[15] = test system: HeLa cells; settings: human
[16] = test system: Vero cells; settings: African green monkey
[17] = test system: panel of Gram-positive bacteria; format: cell-based

Structure (SMILES)	Cytotoxicity MCC (minimum cytotoxic concentration) [4] [µM]	MIC [6] [µg/mL]	MIC [7] [µg/mL]	MIC [8] [µg/mL]	MIC Staphylococcus epidermidis ATCC 35984 biofilm [9] [µg/mL]	MIC [10] [µg/mL]	MIC [11] [µg/mL]	MIC [12] [µg/mL]	Activity against influenza strains (in words) [13]	CC50 [4] [µM]	CC50 [14] [µM]	CC50 [15] [µM]	Cytotoxicity MCC [15]	CC50 [16] [µM]	also measured
CC(=O)N[C@H]1[C@H]([C@H](O)[C@H](O)CO)OC(C(=O)O)=C[C@@H]1N=C(N)N [zanamivir]	>100	–	–	–	–	–	–	–	–	–	–	–	–	–	EC50 ([1]; read-out: Antiviral EC50 A/H1N1 CPE): 1.5 µM; EC50 ([1]; read-out: Antiviral EC50 A/H1N1 MTS): 3.1 µM; EC50 ([2]; read-out: Antiviral EC50 A/H3N2 CPE): 20 µM; EC50 ([2]; read-out: Antiviral EC50 A/H3N2 MTS): 9 µM; EC50 ([3]; B/Ned/537/05, MTS assay, read-out: Antiviral EC50 Influenza B MTS): 1.7 µM; EC50 ([3]; B/Ned/537/05, visual CPE scoring, read-out: Antiviral EC50 Influenza B CPE): 2 µM; CC50 [5]: > 100 µM
CC(=O)NC1C(OC2c3ccc(c(Cl)c3)Oc3cc4cc(c3O)Oc3ccc(cc3Cl)CC3NC(=O)C(n5cc(COCCOCCCC(F)(F)C(F)(F)C(F)(F)C(F)(F)C(F)(F)C(F)(F)C(F)(F)C(F)(F)F)nn5)c5ccc(O)c(c5)Oc5cc(O)cc(c5)C(NC3=O)C(=O)NC4C(=O)NC3C(=O)NC2C(=O)NC(C(=O)O)c2cc(O)cc(O)c2-c2cc3ccc2O)OC(CO)C(O)C1O (stereo not drawn) [Compound 17]	100	128 (≈ 64.4 µM)	16 (≈ 8.05 µM)	16 (≈ 8.05 µM)	16 (≈ 8.05 µM)	256 (≈ 129 µM)	256 (≈ 129 µM)	256 (≈ 129 µM)	robust activity	44	> 100	> 100	> 100	> 100	–
CC(=O)N[C@H]1[C@H](O[C@@H]2c3ccc(c(Cl)c3)Oc3cc4cc(c3O)Oc3ccc(cc3Cl)C[C@H]3NC(=O)[C@H](N=[N+]=[N-])c5ccc(O)c(c5)Oc5cc(O)cc(c5)[C@H](NC3=O)C(=O)N[C@H]4C(=O)N[C@H]3C(=O)N[C@@H]2C(=O)N[C@H](C(=O)O)c2cc(O)cc(O)c2-c2cc3ccc2O)O[C@H](CO)[C@@H](O)[C@@H]1O [Compound 14]	>100	–	–	–	–	–	–	–	–	> 100	–	–	–	–	–
CC(C)C[C@H](C(=O)N[C@H]1C(=O)N[C@@H](CC(N)=O)C(=O)N[C@H]2C(=O)N[C@H]3C(=O)N[C@H](C(=O)N[C@H](C(=O)O)c4cc(O)cc(O)c4-c4cc3ccc4O)[C@H](O)c3ccc(c(Cl)c3)Oc3cc2cc(c3O)Oc2ccc(cc2Cl)[C@H]1O)n1cc(COCCOCCOCCOCCOCCCC(F)(F)C(F)(F)C(F)(F)C(F)(F)C(F)(F)C(F)(F)C(F)(F)C(F)(F)F)nn1 [Compound 13]	0.8	16 (≈ 8.66 µM)	8 (≈ 4.33 µM)	8 (≈ 4.33 µM)	16 (≈ 8.66 µM)	4 (≈ 2.16 µM)	256 (≈ 139 µM)	32 (≈ 17.3 µM)	–	0.8	–	> 100	≥ 100	–	Antibacterial activity (in words) [17]: moderate activity; Cytotoxicity in MDCK cells (in words) [4]: highly cytotoxic
CC(=O)NC1C(OC2c3ccc(c(Cl)c3)Oc3cc4cc(c3O)Oc3ccc(cc3Cl)CC3NC(=O)C(n5cc(COCCOCCCC(F)(F)C(F)(F)C(F)(F)C(F)(F)F)nn5)c5ccc(O)c(c5)Oc5cc(O)cc(c5)C(NC3=O)C(=O)NC4C(=O)NC3C(=O)NC2C(=O)NC(C(=O)O)c2cc(O)cc(O)c2-c2cc3ccc2O)OC(CO)C(O)C1O (stereo not drawn) [Compound 15]	100	0.5 (≈ 0.28 µM)	0.5 (≈ 0.28 µM)	0.5 (≈ 0.28 µM)	0.5 (≈ 0.28 µM)	0.5 (≈ 0.28 µM)	1 (≈ 0.559 µM)	4 (≈ 2.24 µM)	robust activity	> 100	> 100	43	–	> 100	Cytotoxicity MCC [16]: > 100

From publication PMC7540527, “Synthesis of Antiviral Perfluoroalkyl Derivatives of Teicoplanin and Vancomycin” (Chemmedchem, 2020)
